Reference: patent US11045416B2, “Topical compositions comprising Pichia anomala and retinol” (Johnson & Johnson Consumer Inc., priority 2018, dated 2021)

Test system: Heparin Binding Epidermal Growth Factor (HBEGF)
Assay: HBEGF gene expression in human skin explants by qPCR (Example 3)
Assay type: cell-based
Conditions: 4 μL topically, 48 hours; observed minus untreated (100)
Method: First, abdominal skin samples were obtained from human adults undergoing abdominoplasty surgery. Informed consent was obtained from each patient, and all experimental steps were approved by an institutional review board (IRB). Subcutaneous fat was carefully removed and skin biopsies of 0.93 cm^2 were prepared under sterile conditions and acclimated in keratinocyte growth media sold under the tradename KGM-GOLD BULLETKIT (Lonza, Walkersville, Md.), with 10% antibiotics under a 5% CO2 humidified atmosphere overnight.
The skin explants were treated topically with 4 μL of the various formulations and left to incubate for 48 hours. An untreated explant sample was used as the control. In the case of combined application of Composition 5 and the 5% solution of Pichia anomala extract, 4 μL of each were applied. At the end of the 48 h, epidermis and dermis were separated by heating. […]
Gene expression assays were performed by real time quantitative polymerase chain reaction (PCR) based on the SyBR green method. qPCR was run on a real time PCR system sold under the tradename CFX96 TOUCH (Bio-Rad Laboratories, Inc., Hercules, Calif.). […] The fold changes were calculated in comparison to the untreated controls and ANOVA statistical test was performed.

CC1=C(/C=C/C(C)=C/C=C/C(C)=C/CO)C(C)(C)CCC1 [retinol, Retinol]
HBEGF expression, Observed Normalized to untreated: 291
